From patent US20220030850A1, “CRYOPRESERVATIVE COMPOSITIONS AND METHODS” (REGENTS OF THE UNIVERSITY OF MINNESOTA, priority 2015, published 2022)

How the values were obtained:
mesenchymal stem cells = assay: 96-well plate freezing, post-thaw scaled raw recovery (calcein-AM/PI); format: cell-based, human; conditions: 10% DMSO at 1° C./min, control
Description: FIG. 2 and FIG. 3 relate to a three-component TGE solution tested with Jurkat cells. […] These components were selected based on pre-screening experiments performed to identify combinations with high potential recovery. The DE algorithm was programmed to output 27 vector solutions per generation with a weight=0.85 and a crossover=1. Experimental testing and result normalization was similar to the methods described above.
In both screening and DE algorithm experiments, cells were frozen in 96-well plates to limit the number of cells and volumes of reagent necessary, and to increase the number of samples that could be tested at one time. Solutions were made at 2× their final concentration in distilled H2O (diH2O). […]
After 96 well plates were thawed, calcein-acetoxymethyl (AM)/propidium iodide was added to each well and the wells were covered from light and placed in a 37° C. incubator for 30 minutes to allow the live cells to cleave calcein-AM. The plates were then analyzed for fluorescence on a plate reader. Raw fluorescence values were used to calculate the number of live and dead cells present in each well by correlating to a control curve of unfrozen cells. The live cell recovery was calculated by dividing the number of live cells present in thawed samples (calcein-AM plate reader fluorescence) by the number of live cells seeded pre-freeze (AO/PI counts). […]

lysozyme = lysozyme (Gallus gallus, UniProt P00698); assay: Differential scanning calorimetry, denaturation temperature of lysozyme in osmolyte solution; format: physicochemical; conditions: 1 mg/ml lysozyme in 20 mM HEPES buffer; single osmolytes 600 mM; heated at 1° C./min; pH 7.3
Sequence of lysozyme (P00698 19-147): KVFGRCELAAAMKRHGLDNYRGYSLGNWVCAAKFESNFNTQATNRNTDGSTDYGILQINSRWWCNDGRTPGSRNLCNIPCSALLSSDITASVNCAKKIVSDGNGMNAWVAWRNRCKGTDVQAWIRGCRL
Procedure: Lysozyme powder was dissolved into each solution reaching final concentration of 100 mg/ml and then refrigerated. Lysozyme in DPBS solution was used as control. For DSC measurements, experiment solution was made by dissolving osmolyte into 20 mM HEPES buffer and the concentration of osmolyte in each solution remained same as in DPBS solution. Lysozyme powder was dissolved into each solution reaching final concentration of 1 mg/ml and kept refrigerated. Lysozyme in HEPES buffer was used as control. The pH of solutions was 7.3 measured by Beckman 350 meter. Differential scanning calorimetry was performed on a differential scanning calorimeter (Q1000, TA Instruments, New Castle, Del.). Osmolyte solutions containing lysozyme were heated in order to determine the denaturation temperature of lysozyme. Experimental solutions were heated from room temperature to 90° C. at 1° C./min. Specific heat, Cp, was calculated from the heat flow data assuming Cp as a function of temperature were analyzed using OriginPro software (OriginLab Corp., Northampton, Mass.) to subtract curve baseline. The midpoint temperature, Tm, was obtained as the temperature corresponding to the maximum specific heat value from the baseline and the denaturation temperature was assumed to be Tm^32.

Question: With C[S+](C)[O-] [DMSO, dimethyl sulfoxide] as the compound, how does the “recovery for MSCs” value (mesenchymal stem cells) read?
Answer: The value was 21%.

Question: How did the “Denaturation temperature Tm of lysozyme” value (lysozyme) turn out when OC[C@H]1O[C@@](CO)(O[C@H]2O[C@H](CO)[C@@H](O)[C@H](O)[C@H]2O)[C@@H](O)[C@@H]1O [Sucrose] was run?
Answer: Its value is 84.4 °C.
